# Measurements reported in patent publication US9995734B2, “Human T cell line assay for evaluating the immunologic identity of glatiramer acetate preparations” (Mylan Inc., priority 2013, dated 2018).
# System: Donor 3 COP T-Cell Lines
# Experiment: ATP proliferation assay (CellTiter Glo), Donor 3 COP T-cell lines, incl. reactivity to non-canonical GA peptides
# Format: cell-based, human
# Details: for Reactivity (proliferation), Mean: Day 54 of culture
substance,measurement,setting,value
glatiramer acetate [COP],ATP proliferation assay,"165-F9C, 10 μg/mL, Day 14, control 19736",145768 RLU
same,"Reactivity (proliferation), Mean","T-cell line 165-B6C, 1 μg/mL antigen, No Antigen 2358",3878 RLU
same,"Reactivity (proliferation), Mean","T-cell line 165-B6C, 3 μg/mL antigen, No Antigen 2358",21455 RLU
same,"Mean, ATP proliferation assay","T-cell line 165-B6C, 3 μg/mL, Day 46, after 3 days",29815 RLU
same,"Reactivity (proliferation), Mean","T-cell line 165-B6C, 10 μg/mL antigen, No Antigen 2358",32197 RLU
same,"Mean, ATP proliferation assay","T-cell line 165-B6C, 10 μg/mL, Day 46, after 3 days",34502 RLU
same,"Reactivity (proliferation), Mean","T-cell line 165-B6C, 100 μg/mL antigen, No Antigen 2358",7969 RLU
same,"Mean, ATP proliferation assay","T-cell line 165-B6C, Day 32, 10 μg/mL",952 RLU
same,"Reactivity (proliferation), Mean","T-cell line 165-B10C, 1 μg/mL antigen, No Antigen 2234",2117 RLU
same,"Reactivity (proliferation), Mean","T-cell line 165-B10C, 3 μg/mL antigen, No Antigen 2234",2519 RLU
same,"Mean, ATP proliferation assay","T-cell line 165-B10C, 3 μg/mL, Day 46, after 3 days",8450 RLU
same,"Reactivity (proliferation), Mean","T-cell line 165-B10C, 10 μg/mL antigen, No Antigen 2234",6701 RLU
same,"Mean, ATP proliferation assay","T-cell line 165-B10C, 10 μg/mL, Day 46, after 3 days",19792 RLU
same,"Reactivity (proliferation), Mean","T-cell line 165-B10C, 100 μg/mL antigen, No Antigen 2234",6215 RLU
same,"Proliferation (luminescent ATP assay), Mean","T-cell line 165-C4C, 1 μg/mL antigen, Day 66 of culture, 0 μg/mL 1881",2357
same,"Mean, ATP proliferation assay","T-cell line 165-C4C, 1 μg/mL, Day 39",11653
same,"Proliferation (luminescent ATP assay), Mean","T-cell line 165-C4C, 3 μg/mL antigen, Day 66 of culture, 0 μg/mL 1881",7913
same,"Mean, ATP proliferation assay","T-cell line 165-C4C, 3 μg/mL, Day 39",28474
same,"Proliferation (luminescent ATP assay), Mean","T-cell line 165-C4C, 10 μg/mL antigen, Day 66 of culture, 0 μg/mL 1881",74558
same,"Mean, ATP proliferation assay","T-cell line 165-C4C, 10 μg/mL, Day 39",28262
same,"Mean, ATP proliferation assay","T-cell line 165-C7C, 1 μg/mL, Day 39",3670
same,"Mean, ATP proliferation assay","T-cell line 165-C7C, 3 μg/mL, Day 39",16527
same,"Mean, ATP proliferation assay","T-cell line 165-C7C, 10 μg/mL, Day 39",40194
same,"Mean, ATP proliferation assay","T-cell line 165-D2C, 1 μg/mL, Day 39",3955
same,"Mean, ATP proliferation assay","T-cell line 165-D2C, 3 μg/mL, Day 39",7378
same,"Mean, ATP proliferation assay","T-cell line 165-D2C, 10 μg/mL, Day 39",14239
same,"Reactivity (proliferation), Mean","T-cell line 165-D3C, 1 μg/mL antigen, No Antigen 8319",22689 RLU
same,"Mean, ATP proliferation assay","T-cell line 165-D3C, 1 μg/mL, Day 46, after 3 days",1248 RLU
same,"Reactivity (proliferation), Mean","T-cell line 165-D3C, 3 μg/mL antigen, No Antigen 8319",50369 RLU
same,"Mean, ATP proliferation assay","T-cell line 165-D3C, 3 μg/mL, Day 46, after 3 days",79792 RLU
same,"Reactivity (proliferation), Mean","T-cell line 165-D3C, 10 μg/mL antigen, No Antigen 8319",52151 RLU
same,"Mean, ATP proliferation assay","T-cell line 165-D3C, 10 μg/mL, Day 46, after 3 days",86270 RLU
same,"Reactivity (proliferation), Mean","T-cell line 165-D3C, 100 μg/mL antigen, No Antigen 8319",10140 RLU
same,"Mean, ATP proliferation assay","T-cell line 165-D3C, Day 32, 10 μg/mL",3362 RLU
same,"Reactivity (proliferation), Mean","T-cell line 165-D11C, 1 μg/mL antigen, No Antigen 4571",3410 RLU
same,"Mean, ATP proliferation assay","T-cell line 165-D11C, 1 μg/mL, Day 46, after 3 days",486 RLU
same,"Reactivity (proliferation), Mean","T-cell line 165-D11C, 3 μg/mL antigen, No Antigen 4571",6618 RLU
same,"Mean, ATP proliferation assay","T-cell line 165-D11C, 3 μg/mL, Day 46, after 3 days",19410 RLU
same,"Reactivity (proliferation), Mean","T-cell line 165-D11C, 10 μg/mL antigen, No Antigen 4571",15652 RLU
same,"Mean, ATP proliferation assay","T-cell line 165-D11C, 10 μg/mL, Day 46, after 3 days",42017 RLU
same,"Reactivity (proliferation), Mean","T-cell line 165-D11C, 100 μg/mL antigen, No Antigen 4571",12958 RLU
same,"Mean, ATP proliferation assay","T-cell line 165-D11C, Day 32, 10 μg/mL",525 RLU
same,"Reactivity (proliferation), Mean","T-cell line 165-E3C, 1 μg/mL antigen, No Antigen 2797",2592 RLU
same,"Mean, ATP proliferation assay","T-cell line 165-E3C, 1 μg/mL, Day 46, after 3 days",364 RLU
same,"Reactivity (proliferation), Mean","T-cell line 165-E3C, 3 μg/mL antigen, No Antigen 2797",14394 RLU
same,"Mean, ATP proliferation assay","T-cell line 165-E3C, 3 μg/mL, Day 46, after 3 days",23785 RLU
same,"Reactivity (proliferation), Mean","T-cell line 165-E3C, 10 μg/mL antigen, No Antigen 2797",39495 RLU
same,"Mean, ATP proliferation assay","T-cell line 165-E3C, 10 μg/mL, Day 46, after 3 days",51822 RLU
same,"Reactivity (proliferation), Mean","T-cell line 165-E3C, 100 μg/mL antigen, No Antigen 2797",20538 RLU
same,"Mean, ATP proliferation assay","T-cell line 165-E3C, Day 32, 10 μg/mL",3778 RLU
same,"Reactivity (proliferation), Mean","T-cell line 165-F3C, 1 μg/mL antigen, No Antigen 3150",7777 RLU
same,"Proliferation (luminescent ATP assay), Mean","T-cell line 165-F3C, 1 μg/mL antigen, Day 77 of culture, 0 μg/mL 1563",5027
same,"Reactivity (proliferation), Mean","T-cell line 165-F3C, 3 μg/mL antigen, No Antigen 3150",36331 RLU
same,"Proliferation (luminescent ATP assay), Mean","T-cell line 165-F3C, 3 μg/mL antigen, Day 77 of culture, 0 μg/mL 1563",32906
same,"Mean, ATP proliferation assay","T-cell line 165-F3C, 3 μg/mL, Day 46, after 3 days",75407 RLU
same,"Reactivity (proliferation), Mean","T-cell line 165-F3C, 10 μg/mL antigen, No Antigen 3150",44047 RLU
same,"Proliferation (luminescent ATP assay), Mean","T-cell line 165-F3C, 10 μg/mL antigen, Day 77 of culture, 0 μg/mL 1563",62888
same,"Mean, ATP proliferation assay","T-cell line 165-F3C, 10 μg/mL, Day 46, after 3 days",85442 RLU
same,"Reactivity (proliferation), Mean","T-cell line 165-F3C, 100 μg/mL antigen, No Antigen 3150",9932 RLU
same,"Mean, ATP proliferation assay","T-cell line 165-F3C, Day 32, 10 μg/mL",1141 RLU
same,"Reactivity (proliferation), Mean","T-cell line 165-F6C, 1 μg/mL antigen, No Antigen 2189",13418 RLU
same,"Reactivity (proliferation), Mean","T-cell line 165-F6C, 3 μg/mL antigen, No Antigen 2189",38973 RLU
same,"Mean, ATP proliferation assay","T-cell line 165-F6C, 3 μg/mL, Day 46, after 3 days",31382 RLU
same,"Reactivity (proliferation), Mean","T-cell line 165-F6C, 10 μg/mL antigen, No Antigen 2189",39560 RLU
same,"Mean, ATP proliferation assay","T-cell line 165-F6C, 10 μg/mL, Day 46, after 3 days",34071 RLU
same,"Reactivity (proliferation), Mean","T-cell line 165-F6C, 100 μg/mL antigen, No Antigen 2189",4332 RLU
same,"Mean, ATP proliferation assay","T-cell line 165-F6C, Day 32, 10 μg/mL",1484 RLU
same,response in proliferation assay,"all seven Donor 3 COP T-cell lines tested, Day 54",responded well
same,reactivity in confirmatory ATP proliferation assay,"six Donor 3 COP lines, Day 32, 10 μg/mL (Table 23)",showed reactivity
